Measurements as given in ChEMBL document CHEMBL1201862, “PubChem BioAssay data set” (2004).
Calls of active or inactive are those of the source.

Tests used:
[1] = target: ADP-ribosylation factor GTPase-activating protein 1 (Rattus norvegicus, UniProt Q62848); test: Fluorescence polarization-based biochemical high throughput dose response screening assay to identify inhibitors of ADP-ribosylation factor GTPase activating protein 1 (ARFGAP1).; format: functional
[2] = target: Fructose-bisphosphate aldolase (Mycobacterium tuberculosis, UniProt P9WQA3); test: Fluorescence-based biochemical high throughput dose response assay for inhibitors of the fructose-bisphosphate aldolase (FBA) of M. tuberculosis.; format: functional
Fructose-bisphosphate aldolase, sequence (P9WQA3 whole entry): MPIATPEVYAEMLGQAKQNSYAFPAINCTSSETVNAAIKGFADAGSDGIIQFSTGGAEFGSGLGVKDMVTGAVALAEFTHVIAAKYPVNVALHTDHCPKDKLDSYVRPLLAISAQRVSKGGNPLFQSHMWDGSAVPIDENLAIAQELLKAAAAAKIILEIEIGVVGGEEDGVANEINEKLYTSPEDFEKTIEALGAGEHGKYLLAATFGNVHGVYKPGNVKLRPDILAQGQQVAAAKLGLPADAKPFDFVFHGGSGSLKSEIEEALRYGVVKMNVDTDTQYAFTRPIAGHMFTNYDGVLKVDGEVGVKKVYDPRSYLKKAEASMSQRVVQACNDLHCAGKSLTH

[3] = target: T1, Endoribonuclease toxin MazF (Escherichia coli K-12, UniProt P0AE70); test: MazF toxin RNase activators, dose response, biochemical, fluorescence, single-stranded RNA substrate, uHTS hits (AID 588481); format: functional
T1 sequence (P0AE70 whole entry): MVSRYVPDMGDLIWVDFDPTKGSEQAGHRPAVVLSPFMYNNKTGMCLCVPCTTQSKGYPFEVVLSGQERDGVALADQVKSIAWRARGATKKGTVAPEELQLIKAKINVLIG

[4] = target: Heat shock protein HSP 90-alpha (Homo sapiens, UniProt P07900); format: functional, organism-based
[5] = target: T1, Endoribonuclease toxin MazF; test: fluorescent RNA oligo signal without MazF, dose response, counter-screen for MazEF activator project, biochemical, fluorescence, single-stranded RNase substrate (AID 588502); format: functional
Melanocortin receptor 4 = Melanocortin receptor 4 (Homo sapiens, UniProt P32245); format: functional, cell-based;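 also: Cell-based assay with luminescence read-out, confirmatory dose-response testing for agonist activity of biased ligands at MC4R; human U2OS cells with tagged receptor and beta-arrestin; potency of agonists that increase receptor coupling to beta-arrestin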
Melanocortin receptor 4, sequence (P32245 whole entry): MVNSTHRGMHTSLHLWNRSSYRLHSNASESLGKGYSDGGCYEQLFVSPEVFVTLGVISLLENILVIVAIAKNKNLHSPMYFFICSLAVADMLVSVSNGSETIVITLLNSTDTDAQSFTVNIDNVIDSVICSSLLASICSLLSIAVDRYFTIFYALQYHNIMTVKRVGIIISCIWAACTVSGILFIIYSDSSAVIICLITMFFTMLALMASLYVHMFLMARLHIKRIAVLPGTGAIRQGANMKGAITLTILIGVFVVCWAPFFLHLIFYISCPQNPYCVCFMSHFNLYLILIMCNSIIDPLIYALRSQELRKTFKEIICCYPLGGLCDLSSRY

[6] = target: T2, Probable nicotinate-nucleotide adenylyltransferase (Staphylococcus aureus (strain N315), UniProt P65502); format: functional, Staphylococcus aureus subsp. aureus N315;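 as to IC50 Mean: confirmatory dose-response retesting of NadD inhibitor hits first found in an ultra-high-throughput screen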
T2 sequence (P65502 whole entry): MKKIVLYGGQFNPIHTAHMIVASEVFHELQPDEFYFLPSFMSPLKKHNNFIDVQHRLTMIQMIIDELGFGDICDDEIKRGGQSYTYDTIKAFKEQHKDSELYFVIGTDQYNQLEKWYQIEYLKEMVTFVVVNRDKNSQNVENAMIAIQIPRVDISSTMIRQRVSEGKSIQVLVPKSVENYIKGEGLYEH

[7] = target: T2, Probable nicotinate-nucleotide adenylyltransferase; format: functional, Staphylococcus aureus subsp. aureus N315; conditions: read-out: IC50_Mean
[8] = cytotoxicity in HPDE-C7 cells, cell-based, fluorescence, HTS (AID 430); format: functional; conditions: Homo sapiens
[9] = cytotoxicity in KRAS-transformed pancreatic duct cells, primary screen, cell-based, fluorescence, HTS (AID 431); format: functional; conditions: Homo sapiens;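 also: cell line used: HPDE-C7K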
[10] = growth suppression of PTEN-null colon cells, dose response, cell-based, HCT116 PTEN knockout (AID 1047); format: functional;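 also: HCT116 colon tumor cells with PTEN knocked out; cells exposed to compound for 60 hours before readout; potency for loss of cell viability measured by luminescence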
[11] = growth suppression of beta-catenin-knockout colon cells, dose response, cell-based, HCT116, human colon tumor (AID 1045); format: functional;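 also: HCT116 colon tumor cells with beta catenin knocked out; cells exposed to compound for 60 hours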
cells [12] = format: functional, cell-based
[13] = target: T3, Trace amine-associated receptor 1 (Homo sapiens, UniProt Q96RJ0); test: Fluorescence-based cell-based high throughput dose response assay to identify agonists of the human trace amine associated receptor 1 (TAAR1).; format: functional
T3 sequence (Q96RJ0 whole entry): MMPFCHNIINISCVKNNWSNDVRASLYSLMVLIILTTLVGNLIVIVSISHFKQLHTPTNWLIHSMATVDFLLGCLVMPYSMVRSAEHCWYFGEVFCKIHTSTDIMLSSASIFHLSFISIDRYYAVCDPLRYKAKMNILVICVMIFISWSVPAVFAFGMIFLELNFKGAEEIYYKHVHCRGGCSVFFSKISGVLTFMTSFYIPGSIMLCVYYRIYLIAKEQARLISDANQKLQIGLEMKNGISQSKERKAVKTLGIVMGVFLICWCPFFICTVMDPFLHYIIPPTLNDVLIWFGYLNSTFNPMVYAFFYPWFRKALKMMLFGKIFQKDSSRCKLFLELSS

[14] = target: T3, Trace amine-associated receptor 1; test: Counterscreen for agonists of the human trace amine associated receptor 1 (hTAAR1): Fluorescence-based cell-based high throughput dose response assay to identify hTAAR1 agonist that also desensitize TAAR1 receptor response.; format: functional
cells [15] = format: functional, cell-based; remark: listed apart in the source
[16] = target: T4, Methionyl-tRNA synthetase, putative (Trypanosoma brucei brucei, UniProt Q38C91); format: functional, Trypanosoma brucei brucei strain 927/4 GUTat10.1
T4 sequence (Q38C91 whole entry): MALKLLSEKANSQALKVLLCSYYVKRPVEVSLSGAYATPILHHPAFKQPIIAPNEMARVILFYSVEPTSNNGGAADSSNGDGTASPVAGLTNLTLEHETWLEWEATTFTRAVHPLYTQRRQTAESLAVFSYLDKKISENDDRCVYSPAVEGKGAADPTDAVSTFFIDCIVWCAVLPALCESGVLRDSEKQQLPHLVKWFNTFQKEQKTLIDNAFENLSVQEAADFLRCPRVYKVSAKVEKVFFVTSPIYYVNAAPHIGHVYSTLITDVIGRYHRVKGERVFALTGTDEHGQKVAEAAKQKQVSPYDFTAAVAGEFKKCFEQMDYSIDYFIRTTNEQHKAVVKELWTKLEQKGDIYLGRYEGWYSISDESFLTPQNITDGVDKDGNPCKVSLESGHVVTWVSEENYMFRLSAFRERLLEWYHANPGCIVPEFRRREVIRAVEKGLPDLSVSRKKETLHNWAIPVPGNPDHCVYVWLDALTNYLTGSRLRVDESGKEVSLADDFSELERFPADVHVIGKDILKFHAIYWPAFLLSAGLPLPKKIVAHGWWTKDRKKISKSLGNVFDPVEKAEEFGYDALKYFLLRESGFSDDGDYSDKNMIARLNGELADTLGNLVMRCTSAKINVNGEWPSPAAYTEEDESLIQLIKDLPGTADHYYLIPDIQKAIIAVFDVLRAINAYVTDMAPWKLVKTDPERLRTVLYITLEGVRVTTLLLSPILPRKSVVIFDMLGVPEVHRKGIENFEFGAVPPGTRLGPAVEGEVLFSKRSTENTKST

[17] = target: T4, Methionyl-tRNA synthetase, putative; format: functional, Trypanosoma brucei brucei strain 927/4 GUTat10.1; remark: listed apart in the source
[18] = inhibitors of HIV Env-driven cell fusion, dose response, cherry-pick (AID 652057); format: functional, cell-based
[19] = CEM21 lymphoblast cell cytotoxicity, dose response, cytotoxicity control for viral fusion inhibitor project, CellTiter-Glo luminescence, cherry-picked (AID 652042); format: functional, cell-based;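 also: potency for signal decrease meaning cytotoxicity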
[20] = ZM109 Env clade C HIV-1 fusion inhibitors, dose response, HeLa effector, CEM target cells, luciferase, cherry-pick (AID 652058); format: functional, cell-based
[21] = off-target signal loss in HeLa-CEM21 co-culture – HeLa F-luc CTL cells, cherry-picked, counter-screen for HIV-1 Env fusion inhibitor project, dose response (AID 652040); format: functional, cell-based;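 also: potency for signal decrease marking cytotoxic or nonspecific inhibition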
[22] = inhibitors of clade B AD8 Env fusion, dose response, cell-based, cherry-pick (AID 652062); format: functional;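 also: luciferase signal from cell-cell fusion driven by HIV-1 clade B AD8 Env; potency is for inhibitors of fusion seen as a drop in luminescence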
H9c2 = test: cells; format: functional, cell-based; conditions: Rattus norvegicus, H9c2, Myocardium
[23] = target: Long-chain-fatty-acid--AMP ligase FadD28 (Mycobacterium tuberculosis, UniProt P9WQ59); test: Fluorescence polarization aasay to screen for inhibitors that compete for the binding of FadD28 to a bisubstrate Measured in Biochemical System Using Plate Reader - 2147-01_Inhibitor_Dose_CherryPick_Activity.; format: functional, Mycobacterium tuberculosis H37Rv
Long-chain-fatty-acid--AMP ligase FadD28, sequence (P9WQ59 whole entry): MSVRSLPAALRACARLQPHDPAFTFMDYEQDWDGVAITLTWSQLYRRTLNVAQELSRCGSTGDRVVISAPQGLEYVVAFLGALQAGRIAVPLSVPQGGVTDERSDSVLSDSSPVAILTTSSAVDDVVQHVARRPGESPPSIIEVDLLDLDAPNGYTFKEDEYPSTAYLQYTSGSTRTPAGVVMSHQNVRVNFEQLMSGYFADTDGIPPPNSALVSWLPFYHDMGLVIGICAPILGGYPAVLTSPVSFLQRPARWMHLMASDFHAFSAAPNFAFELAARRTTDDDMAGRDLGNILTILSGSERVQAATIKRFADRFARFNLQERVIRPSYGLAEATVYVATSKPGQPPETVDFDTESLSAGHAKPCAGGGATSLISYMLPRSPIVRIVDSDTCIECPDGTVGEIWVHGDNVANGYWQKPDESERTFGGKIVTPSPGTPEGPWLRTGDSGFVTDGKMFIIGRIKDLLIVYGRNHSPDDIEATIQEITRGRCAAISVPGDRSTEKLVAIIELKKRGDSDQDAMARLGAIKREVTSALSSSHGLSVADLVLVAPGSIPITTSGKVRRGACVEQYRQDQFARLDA

[24] = target: T5, Sentrin-specific protease 8 (Homo sapiens, UniProt Q96LD8); format: functional
T5 sequence (Q96LD8 whole entry): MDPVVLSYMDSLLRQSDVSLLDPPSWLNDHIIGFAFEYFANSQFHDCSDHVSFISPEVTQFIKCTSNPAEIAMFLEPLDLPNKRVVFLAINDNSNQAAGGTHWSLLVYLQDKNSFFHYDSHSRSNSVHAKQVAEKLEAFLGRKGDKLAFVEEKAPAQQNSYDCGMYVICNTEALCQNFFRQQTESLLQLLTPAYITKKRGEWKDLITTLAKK

[25] = target: T5, Sentrin-specific protease 8; format: functional; remark: listed apart in the source
Vero = test: Vero cell toxicity, dose response, cytotoxicity control, plate reader, cherry-pick samples (AID 687020); format: functional, cell-based; conditions: Chlorocebus sabaeus
Beta-lactamase [26] = target: Beta-lactamase (Pseudomonas aeruginosa, UniProt Q79MP6);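 also: biochemical dose-response test of metallo-beta-lactamase enzyme inhibition, read out by epi-absorbance; purified recombinant IMP-1 metallo-beta-lactamase with nitrocefin as substrate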
Beta-lactamase (Pseudomonas aeruginosa, UniProt Q79MP6), sequence (Q79MP6 whole entry): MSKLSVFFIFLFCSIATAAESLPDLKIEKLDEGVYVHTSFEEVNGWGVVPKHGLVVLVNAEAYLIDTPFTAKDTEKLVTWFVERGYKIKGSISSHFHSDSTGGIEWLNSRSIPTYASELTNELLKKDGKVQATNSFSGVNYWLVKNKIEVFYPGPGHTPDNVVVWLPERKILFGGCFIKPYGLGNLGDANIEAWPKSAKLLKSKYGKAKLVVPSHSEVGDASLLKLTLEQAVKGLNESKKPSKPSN

Beta-lactamase [27] = target: Beta-lactamase (Salmonella choleraesuis (strain SC-B67), UniProt Q5J463)
Beta-lactamase (Salmonella choleraesuis (strain SC-B67), UniProt Q5J463), sequence (Q5J463 whole entry): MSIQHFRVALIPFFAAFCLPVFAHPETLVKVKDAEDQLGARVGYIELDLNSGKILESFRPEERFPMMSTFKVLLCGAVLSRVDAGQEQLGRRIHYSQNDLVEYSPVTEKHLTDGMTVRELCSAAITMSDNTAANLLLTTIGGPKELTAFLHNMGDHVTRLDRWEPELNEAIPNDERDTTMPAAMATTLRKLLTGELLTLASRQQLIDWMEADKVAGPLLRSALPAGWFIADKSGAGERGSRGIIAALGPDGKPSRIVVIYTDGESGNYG

Genome polyprotein = Genome polyprotein (dengue virus type 2, UniProt P29990); test: Dengue-2 NS5 methyltransferase inhibitors, primary screen, biochemical, confirmation dose response (AID 588689); format: functional
Genome polyprotein, sequence (P29990 2492-3391 limits assumed): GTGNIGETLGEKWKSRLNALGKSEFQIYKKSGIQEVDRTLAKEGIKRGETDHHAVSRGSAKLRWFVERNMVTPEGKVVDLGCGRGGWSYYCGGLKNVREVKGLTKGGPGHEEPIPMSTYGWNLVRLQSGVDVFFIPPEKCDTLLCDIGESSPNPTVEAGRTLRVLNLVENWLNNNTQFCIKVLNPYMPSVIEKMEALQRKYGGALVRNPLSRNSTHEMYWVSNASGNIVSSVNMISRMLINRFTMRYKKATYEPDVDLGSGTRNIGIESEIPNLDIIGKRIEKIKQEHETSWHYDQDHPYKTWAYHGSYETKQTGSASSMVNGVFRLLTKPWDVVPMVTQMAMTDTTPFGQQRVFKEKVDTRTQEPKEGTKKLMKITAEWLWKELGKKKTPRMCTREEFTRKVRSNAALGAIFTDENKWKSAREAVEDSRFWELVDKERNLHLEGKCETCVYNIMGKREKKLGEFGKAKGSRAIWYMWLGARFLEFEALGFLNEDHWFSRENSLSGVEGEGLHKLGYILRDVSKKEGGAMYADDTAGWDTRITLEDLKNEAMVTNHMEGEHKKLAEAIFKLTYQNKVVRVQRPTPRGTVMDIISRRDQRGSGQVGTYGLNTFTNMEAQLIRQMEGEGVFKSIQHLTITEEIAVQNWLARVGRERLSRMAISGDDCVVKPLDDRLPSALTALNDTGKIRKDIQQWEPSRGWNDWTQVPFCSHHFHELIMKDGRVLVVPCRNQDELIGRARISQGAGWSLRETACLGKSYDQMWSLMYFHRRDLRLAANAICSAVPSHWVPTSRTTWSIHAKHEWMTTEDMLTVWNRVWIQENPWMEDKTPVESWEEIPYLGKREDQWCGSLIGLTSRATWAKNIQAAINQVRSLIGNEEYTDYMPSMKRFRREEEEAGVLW

[28] = Counterscreen for inhibitors of Trypanosoma brucei methionyl tRNA synthetase (MetRS): Luminescence-based cell-based high throughput dose response assay to identify compounds that are cytotoxic to Jurkat human T lymphocyte cells.; format: functional
Cytochrome P450 2D6 = Cytochrome P450 2D6 (Homo sapiens, UniProt P10635);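 also: CYP2D6 member of a cytochrome P450 panel assay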
Cytochrome P450 2D6, sequence (P10635 whole entry): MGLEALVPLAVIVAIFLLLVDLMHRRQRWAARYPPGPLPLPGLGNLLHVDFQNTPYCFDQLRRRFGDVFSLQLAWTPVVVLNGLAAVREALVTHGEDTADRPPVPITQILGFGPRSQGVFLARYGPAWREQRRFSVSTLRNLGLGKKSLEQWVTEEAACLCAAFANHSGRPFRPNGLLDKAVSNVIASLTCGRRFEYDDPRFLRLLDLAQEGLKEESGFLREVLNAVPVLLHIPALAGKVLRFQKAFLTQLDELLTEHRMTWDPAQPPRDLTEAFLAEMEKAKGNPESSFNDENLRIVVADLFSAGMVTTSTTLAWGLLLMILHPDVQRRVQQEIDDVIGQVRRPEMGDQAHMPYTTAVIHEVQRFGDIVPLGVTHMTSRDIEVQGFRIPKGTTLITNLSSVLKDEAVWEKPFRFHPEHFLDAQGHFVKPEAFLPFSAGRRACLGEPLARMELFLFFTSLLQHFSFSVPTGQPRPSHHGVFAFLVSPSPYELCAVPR

Cytochrome P450 1A2 = target: T6, Cytochrome P450 1A2 (Homo sapiens, UniProt P05177);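 also: PubChem cytochrome P450 panel assay, CYP1A2 panel member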
T6 sequence (P05177 whole entry): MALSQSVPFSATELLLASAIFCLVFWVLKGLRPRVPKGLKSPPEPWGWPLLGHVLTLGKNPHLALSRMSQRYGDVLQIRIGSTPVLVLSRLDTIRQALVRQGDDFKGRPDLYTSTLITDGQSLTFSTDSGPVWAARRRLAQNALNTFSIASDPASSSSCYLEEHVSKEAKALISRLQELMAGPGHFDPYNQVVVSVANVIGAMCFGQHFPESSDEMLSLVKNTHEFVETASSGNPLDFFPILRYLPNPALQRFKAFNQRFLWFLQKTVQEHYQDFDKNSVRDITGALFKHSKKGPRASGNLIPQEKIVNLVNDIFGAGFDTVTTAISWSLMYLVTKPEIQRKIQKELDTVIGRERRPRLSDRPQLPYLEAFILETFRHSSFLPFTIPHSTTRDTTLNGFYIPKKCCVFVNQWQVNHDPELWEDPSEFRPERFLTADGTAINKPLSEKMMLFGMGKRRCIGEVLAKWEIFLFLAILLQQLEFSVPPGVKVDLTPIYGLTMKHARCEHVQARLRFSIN

Cytochrome P450 2C9 = Cytochrome P450 2C9 (Homo sapiens, UniProt P11712)
Cytochrome P450 2C9, sequence (P11712 whole entry): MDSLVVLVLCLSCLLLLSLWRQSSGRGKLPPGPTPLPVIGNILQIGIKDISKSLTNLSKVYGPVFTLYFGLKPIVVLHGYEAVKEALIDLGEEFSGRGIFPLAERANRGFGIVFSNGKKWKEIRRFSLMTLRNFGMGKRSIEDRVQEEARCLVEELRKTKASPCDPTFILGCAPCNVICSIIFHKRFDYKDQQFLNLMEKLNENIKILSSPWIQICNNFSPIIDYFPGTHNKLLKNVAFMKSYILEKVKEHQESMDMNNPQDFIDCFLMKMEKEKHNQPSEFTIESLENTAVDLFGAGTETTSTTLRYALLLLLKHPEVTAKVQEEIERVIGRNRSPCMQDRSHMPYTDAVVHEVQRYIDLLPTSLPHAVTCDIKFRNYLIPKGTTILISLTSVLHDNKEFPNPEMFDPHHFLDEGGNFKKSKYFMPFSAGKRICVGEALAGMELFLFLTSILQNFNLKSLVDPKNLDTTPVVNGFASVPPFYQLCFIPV

ADP-ribosylation factor GTPase-activating protein 1, sequence (Q62848 whole entry): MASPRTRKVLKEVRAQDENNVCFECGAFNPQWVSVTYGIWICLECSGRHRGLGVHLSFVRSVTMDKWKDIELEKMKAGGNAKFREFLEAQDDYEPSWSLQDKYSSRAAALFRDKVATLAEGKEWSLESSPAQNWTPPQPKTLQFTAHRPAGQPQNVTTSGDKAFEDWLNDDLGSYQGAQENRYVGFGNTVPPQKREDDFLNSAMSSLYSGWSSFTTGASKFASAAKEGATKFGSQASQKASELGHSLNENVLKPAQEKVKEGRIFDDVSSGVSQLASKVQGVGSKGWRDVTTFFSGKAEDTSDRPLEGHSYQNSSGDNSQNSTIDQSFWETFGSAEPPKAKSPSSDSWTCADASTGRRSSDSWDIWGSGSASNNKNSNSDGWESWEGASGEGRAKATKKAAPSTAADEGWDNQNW

## Cc1ccc(-c2nn(-c3ccccc3)cc2/C=C/C(=O)Nc2nccs2)cc1
[1]
  IC50: 20.3 µM (inactive)

## O=C(Nc1ccc2c(c1)OCCO2)c1cccs1
[2]
  IC50: > 9.98 µM (inactive)

## COc1ccc2oc(=O)c(-c3csc(Nc4cccc(O)c4)n3)cc2c1
[3]
  EC50: > 99 µM (inactive)
[4]
  AC50: 7.16 µM (active)
[5]
  EC50: > 99 µM (inactive)
Melanocortin receptor 4
  EC50: > 89.2 µM (inactive)
[6]
  IC50: 19.2 µM (active)
[7]
  IC50: 29 µM (active)

## O=C(CCN1CCC(c2ccccc2)C1)c1cccs1 (stereo not drawn)
[8]
  EC50: > 20 µM (not active)
[9]
  EC50: > 20 µM (not active)
[10]
  EC50: 34.1 µM (active)
[11]
  EC50: 29.3 µM (active)
Cells [12]
  IC50: > 29.9 µM (inactive)
[13]
  EC50: 0.157 µM (active)
[14]
  IC50: 1.49 µM (active)
Cells [15]
  EC50: > 29.9 µM (inactive)

## Cc1cccc(NS(=O)(=O)c2ccc3nc(-c4ccccc4)[nH]c3c2)c1C
[16]
  IC50: 119 µM (inactive)
[17]
  IC50: 14.6 µM (inactive)

## CCOc1ccc(C(O)(CCC(C)C)C(CN2CCOCC2)c2ccccc2)cc1 (stereo not drawn)
[18]
  AC50: 3.6 µM (active)
[19]
  AC50: 26.8 µM (active)
[20]
  AC50: 3.65 µM (active)
[21]
  AC50: 5.42 µM (active)
[22]
  AC50: 9.83 µM (active)

## COC(=O)c1cccc(Nc2nc(-c3cccnc3)nc3ccccc23)c1
H9c2
  IC50: 4.96 µM (active)
[1]
  IC50: 38.3 µM (inactive)

## COc1cccc(NC(=O)CC(=O)c2ccc([N+](=O)[O-])cc2)c1
[23]
  AC50: 94.1 µM (active)

## CCCCC(CC)CNC(=O)C1C2C=CC(C2)C1C(=O)O (stereo not drawn)
Cells [12]
  IC50: > 29.9 µM (inactive)
[13]
  EC50: > 29.9 µM (inactive)
[14]
  IC50: > 29.9 µM (inactive)
Cells [15]
  EC50: > 29.9 µM (inactive)

## O=C(c1ccccc1)[C@@H]1[C@@H](C(=O)c2ccc(F)cc2)[C@@]2(C(=O)Nc3ccccc32)[C@H]2c3ccccc3C=CN12
[24]
  IC50: 12.1 µM (active)
[25]
  IC50: 1.21 µM (active)

## Cc1ccc(NC(=O)Cn2cccc2C2=NC(c3ccccc3)CO2)cc1C (stereo not drawn)
Vero
  AC50: 27.9 µM (active)

## O=C(CCN1C(=O)/C(=C/c2ccc(Cl)cc2)SC1=S)NCCCn1ccnc1
Beta-lactamase [26]
  IC50: > 59.6 µM (inactive)
Beta-lactamase [27]
  IC50: > 59.6 µM (inactive)

## O=C1CC(Nc2ccc([N+](=O)[O-])cc2)=NN1c1c(Cl)cc(Cl)cc1Cl
Genome polyprotein
  IC50: 48.4 µM (active)
[24]
  IC50: 12.3 µM (active)
[25]
  IC50: 16 µM (active)

## CSc1nccc(Oc2ccccc2Cl)n1
[2]
  IC50: > 9.99 µM (inactive)

## NC(Cc1ccc(C(F)(F)F)cc1)c1csc(NC(=O)Nc2ccccc2)n1 (stereo not drawn)
Melanocortin receptor 4
  EC50: > 89.2 µM (inactive)
[16]
  IC50: 1.47 µM (active)
[28]
  IC50: 24.7 µM (inactive)
[17]
  IC50: 2.39 µM (active)
[18]
  AC50: 2.85 µM (active)
[19]
  AC50: 11.3 µM (active)
[20]
  AC50: 2.21 µM (active)
[21]
  AC50: 3.13 µM (active)
[22]
  AC50: 8.46 µM (active)

## COC(=O)C[C@H]1c2cc(C(F)(F)F)ccc2S(=O)(=O)N1Cc1ccc(OC)cc1
Vero
  AC50: 34.6 µM (active)

## COc1ccccc1NCc1nnc(SCC(=O)N/N=C/c2ccco2)n1-c1ccc(Cl)cc1Cl
[23]
  AC50: > 100 µM (inactive)
Cytochrome P450 2D6
  AC50: 28.2 µM (inconclusive)
Cytochrome P450 1A2
  AC50: 28.2 µM (inconclusive)
Cytochrome P450 2C9
  AC50: 35.5 µM (inconclusive)
